# Results as given in PubChem BioAssay AID1918937 (Molecular Pharmacology Branch, DTP, NCI, 2023).
# Several values for one entry are separate records, joined by “and”; a condition that tells them apart may be missing. Equal entries are not always repeated.
# Test system: 521955-158-R2-J5-PDC complex spheroid viability
# Experiment: Anticancer human tumor 521955-158-R2-J5-PDC patient-derived pancreatic carcinoma cell line growth inhibition
# Conditions: for viability, T/C: stronger effect = lower value
# How it was run: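 Complex spheroids of tumor cells with HUVEC and human MSCs, exposed to iadademstat combined with other agents. Each agent tested in half-log steps from near clinical Cmax (else 10 microM top), DMSO ≤0.25%.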
# [1] = curve of first compound, second compound 0.1 µM
# [2] = curve of first compound, second compound 0.316 µM
# [3] = curve of first compound, second compound 1 µM
# [4] = curve of first compound, second compound 3.16 µM
# [5] = curve of first compound, second compound 10 µM
# [6] = second compound 0.1 µM, first compound 0.0316 µM
# [7] = second compound 0.1 µM, first compound 0.1 µM
# [8] = second compound 0.316 µM, first compound 0.0316 µM
# [9] = second compound 0.316 µM, first compound 0.1 µM
# [10] = second compound 1 µM, first compound 0.0316 µM
# [11] = second compound 1 µM, first compound 0.1 µM
# [12] = second compound 3.16 µM, first compound 0.0316 µM
# [13] = second compound 3.16 µM, first compound 0.1 µM
# [14] = second compound 10 µM, first compound 0.0316 µM
# [15] = second compound 10 µM, first compound 0.1 µM
# 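Note: spheroids exposed to agents for seven days.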
# 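Throughout, for viability, T/C: percent of DMSO vehicle control luminescence viability.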
smiles,measurement,setting,value
CC1COCCN1c1cc(C2(S(C)(=N)=O)CC2)nc(-c2ccnc3[nH]ccc23)n1 (stereo not drawn) + NC1CC1c1ccc(-c2cccc(O)c2)cc1,IC50,[1],564 nM
same,IC50,[2],543 nM
same,IC50,[3],666 nM
same,IC50,[4],587 nM
same,IC50,[5],567 nM
same,"viability, T/C",[6],82.3%
same,"viability, T/C",[7],93.9%
same,"viability, T/C","second compound 0.1 µM, first compound 0.316 µM",77.7%
same,"viability, T/C","second compound 0.1 µM, first compound 1 µM",22.6%
same,"viability, T/C","second compound 0.1 µM, first compound 3.16 µM",15.7%
same,"viability, T/C","second compound 0.1 µM, first compound 10 µM",20.8%
same,"viability, T/C",[8],84%
same,"viability, T/C",[9],86.3%
same,"viability, T/C","second compound 0.316 µM, first compound 0.316 µM",74.5%
same,"viability, T/C","second compound 0.316 µM, first compound 1 µM",22.4%
same,"viability, T/C","second compound 0.316 µM, first compound 3.16 µM",15.2%
same,"viability, T/C","second compound 0.316 µM, first compound 10 µM",20.4%
same,"viability, T/C",[10],83%
same,"viability, T/C",[11],90.8%
same,"viability, T/C","second compound 1 µM, first compound 0.316 µM",87.6%
same,"viability, T/C","second compound 1 µM, first compound 1 µM",29.7%
same,"viability, T/C","second compound 1 µM, first compound 3.16 µM",15.9%
same,"viability, T/C","second compound 1 µM, first compound 10 µM",16.8%
same,"viability, T/C",[12],81%
same,"viability, T/C",[13],80.2%
same,"viability, T/C","second compound 3.16 µM, first compound 0.316 µM",78.5%
same,"viability, T/C","second compound 3.16 µM, first compound 1 µM",25.5%
same,"viability, T/C","second compound 3.16 µM, first compound 3.16 µM",14.9%
same,"viability, T/C","second compound 3.16 µM, first compound 10 µM",15.3%
same,"viability, T/C",[14],88.8%
same,"viability, T/C",[15],102%
same,"viability, T/C","second compound 10 µM, first compound 0.316 µM",69.8%
same,"viability, T/C","second compound 10 µM, first compound 1 µM",30.7%
same,"viability, T/C","second compound 10 µM, first compound 3.16 µM",14.9%
same,"viability, T/C","second compound 10 µM, first compound 10 µM",17.6%
CC(C)CC(NC(=O)C(Cc1ccccc1)NC(=O)c1cnccn1)B(O)O (stereo not drawn),"viability, T/C",compound 0.000316 µM,79.9% and 91.8%
same,"viability, T/C",compound 0.001 µM,0.42% and 0.86%
same,"viability, T/C",compound 0.00316 µM,0.29% and 0.43%
same,"viability, T/C",compound 0.01 µM,0.18% and 0.38%
same,"viability, T/C",compound 0.0316 µM,0.31% and 0.4%
same,"viability, T/C",compound 0.1 µM,0.21% and 0.45%
same,IC50,curve of compound,0.488 nM and 0.537 nM
O=C(c1cc(Cc2n[nH]c(=O)c3ccccc23)ccc1F)N1CCN(C(=O)C2CC2)CC1,"viability, T/C",compound 0.0316 µM,95.7% and 102%
same,"viability, T/C",compound 0.1 µM,103% and 100%
same,"viability, T/C",compound 0.316 µM,100% and 104%
same,"viability, T/C",compound 1 µM,100% and 97.1%
same,"viability, T/C",compound 3.16 µM,90.8% and 96.1%
same,"viability, T/C",compound 10 µM,55.5% and 78.5%
same,IC50,curve of compound,> 10000 nM
CCc1c2c(nc3ccc(O)cc13)-c1cc3c(c(=O)n1C2)COC(=O)[C@]3(O)CC + NC1CC1c1ccc(-c2cccc(O)c2)cc1,IC50,[1],< 0.949 nM
same,IC50,[2],< 0.949 nM
same,IC50,[3],< 0.949 nM
same,IC50,[4],< 0.949 nM
same,IC50,[5],< 0.949 nM
same,"viability, T/C","second compound 0.1 µM, first compound 0.000949 µM",10.3%
same,"viability, T/C","second compound 0.1 µM, first compound 0.003 µM",8.53%
same,"viability, T/C","second compound 0.1 µM, first compound 0.00949 µM",1.37%
same,"viability, T/C","second compound 0.1 µM, first compound 0.03 µM",0.77%
same,"viability, T/C","second compound 0.1 µM, first compound 0.0949 µM",0.88%
same,"viability, T/C","second compound 0.1 µM, first compound 0.3 µM",1.18%
same,"viability, T/C","second compound 0.316 µM, first compound 0.000949 µM",14%
same,"viability, T/C","second compound 0.316 µM, first compound 0.003 µM",8.17%
same,"viability, T/C","second compound 0.316 µM, first compound 0.00949 µM",1.18%
same,"viability, T/C","second compound 0.316 µM, first compound 0.03 µM",0.73%
same,"viability, T/C","second compound 0.316 µM, first compound 0.0949 µM",0.87%
same,"viability, T/C","second compound 0.316 µM, first compound 0.3 µM",1.5%
same,"viability, T/C","second compound 1 µM, first compound 0.000949 µM",11.7%
same,"viability, T/C","second compound 1 µM, first compound 0.003 µM",9.8%
same,"viability, T/C","second compound 1 µM, first compound 0.00949 µM",1.34%
same,"viability, T/C","second compound 1 µM, first compound 0.03 µM",1.1%
same,"viability, T/C","second compound 1 µM, first compound 0.0949 µM",0.66%
same,"viability, T/C","second compound 1 µM, first compound 0.3 µM",1.78%
same,"viability, T/C","second compound 3.16 µM, first compound 0.000949 µM",13.4%
same,"viability, T/C","second compound 3.16 µM, first compound 0.003 µM",8.84%
same,"viability, T/C","second compound 3.16 µM, first compound 0.00949 µM",1.07%
same,"viability, T/C","second compound 3.16 µM, first compound 0.03 µM",0.72%
same,"viability, T/C","second compound 3.16 µM, first compound 0.0949 µM",0.84%
same,"viability, T/C","second compound 3.16 µM, first compound 0.3 µM",2.14%
same,"viability, T/C","second compound 10 µM, first compound 0.000949 µM",17.5%
same,"viability, T/C","second compound 10 µM, first compound 0.003 µM",13%
same,"viability, T/C","second compound 10 µM, first compound 0.00949 µM",1.18%
same,"viability, T/C","second compound 10 µM, first compound 0.03 µM",0.43%
same,"viability, T/C","second compound 10 µM, first compound 0.0949 µM",0.52%
same,"viability, T/C","second compound 10 µM, first compound 0.3 µM",0.74%
Nc1ccccc1NC(=O)c1ccc(CNC(=O)OCc2cccnc2)cc1,"viability, T/C",compound 0.00949 µM,105% and 117%
same,"viability, T/C",compound 0.03 µM,102% and 112%
same,"viability, T/C",compound 0.0949 µM,83.6% and 104%
same,"viability, T/C",compound 0.3 µM,56.4% and 70.6%
same,"viability, T/C",compound 0.949 µM,11.1% and 25.3%
same,"viability, T/C",compound 3 µM,0.41% and 0.46%
same,IC50,curve of compound,324 nM and 508 nM
Cn1ncnc1C1c2n[nH]c(=O)c3cc(F)cc(c23)NC1c1ccc(F)cc1 (stereo not drawn) + NC1CC1c1ccc(-c2cccc(O)c2)cc1,IC50,[1],> 100 nM
same,IC50,[2],> 100 nM
same,IC50,[3],> 100 nM
same,IC50,[4],> 100 nM
same,IC50,[5],> 100 nM
same,"viability, T/C","second compound 0.1 µM, first compound 0.000316 µM",91.4%
same,"viability, T/C","second compound 0.1 µM, first compound 0.001 µM",89.3%
same,"viability, T/C","second compound 0.1 µM, first compound 0.00316 µM",92.2%
same,"viability, T/C","second compound 0.1 µM, first compound 0.01 µM",80.4%
same,"viability, T/C",[6],77.3%
same,"viability, T/C",[7],76.2%
same,"viability, T/C","second compound 0.316 µM, first compound 0.000316 µM",91.5%
same,"viability, T/C","second compound 0.316 µM, first compound 0.001 µM",100%
same,"viability, T/C","second compound 0.316 µM, first compound 0.00316 µM",92.9%
same,"viability, T/C","second compound 0.316 µM, first compound 0.01 µM",88.8%
same,"viability, T/C",[8],83%
same,"viability, T/C",[9],78.9%
same,"viability, T/C","second compound 1 µM, first compound 0.000316 µM",82%
same,"viability, T/C","second compound 1 µM, first compound 0.001 µM",83.8%
same,"viability, T/C","second compound 1 µM, first compound 0.00316 µM",93.1%
same,"viability, T/C","second compound 1 µM, first compound 0.01 µM",91.8%
same,"viability, T/C",[10],94.9%
same,"viability, T/C",[11],81.1%
same,"viability, T/C","second compound 3.16 µM, first compound 0.000316 µM",94.9%
same,"viability, T/C","second compound 3.16 µM, first compound 0.001 µM",103%
same,"viability, T/C","second compound 3.16 µM, first compound 0.00316 µM",101%
same,"viability, T/C","second compound 3.16 µM, first compound 0.01 µM",95%
same,"viability, T/C",[12],89%
same,"viability, T/C",[13],84.5%
same,"viability, T/C","second compound 10 µM, first compound 0.000316 µM",97.8%
same,"viability, T/C","second compound 10 µM, first compound 0.001 µM",96.1%
same,"viability, T/C","second compound 10 µM, first compound 0.00316 µM",108%
same,"viability, T/C","second compound 10 µM, first compound 0.01 µM",94.4%
same,"viability, T/C",[14],90.2%
same,"viability, T/C",[15],87.7%
NC1CC1c1ccc(-c2cccc(O)c2)cc1 (stereo not drawn),"viability, T/C",compound 0.1 µM,78.3%
same,IC50,"compound alone, run of 02/21/2022",> 10000 nM
